US20220184041A1, “(AZA)Benzothiazolyl Substituted Pyrazole Compounds” (Pfizer Inc., priority 2020, published 2022)
Read-outs that look alike come from different tables or passages of the source.

Columns and labels:
[1] = biological target: T1, human TTR (biotinylated recombinant protein) (Homo sapiens, UniProt P02766); experiment: TTR SPA binding assay ([3H] tafamidis displacement), EC50 determination; settings: read-out: Geometric Mean EC50
T1 construct: biotin (biotinylated)
Description: Binding of Examples to Transthyretin—EC50 Determination
Briefly, assays were prepared at room temperature in 384-well plates (Corning, 3767) containing 200 nL of test compound in DMSO (or DMSO as vehicle). […] The plates were incubated 1 hour prior to addition of 20 μL of 1.25 mg/mL SPA beads diluted in assay buffer. The assays were incubated an additional 10 hours to allow binding to reach equilibrium and the amount of receptor-ligand complex was determined by liquid scintillation counting using a 1450 Microbeta Trilux (Wallac).
The % effect values for test wells were calculated based on the total binding (vehicle, 0% effect) and non-specific binding (unlabeled ligand, 100% effect) wells on each assay plate. EC50 values were then determined using a standard 4 parameter logistic dose response equation.

Bap-tagged TTR protein = biological target: T2, Bap-tagged TTR protein (Homo sapiens, UniProt P02766); experiment: KD determination by SPR (Surface Plasmon Resonance binding assay); settings: for Kd: 1:1 binding model, read-out: Geometric Mean KD (μM) [SPR]
T2 construct: Bap tag (biotin acceptor peptide, by own knowledge)
Description: Affinity and Reversibility—The binding affinity and kinetics of binding were measured using Surface Plasmon Resonance based binding assay. […] Bap-tagged TTR protein was captured on a Streptavidin coated sensor chip to achieve about 2000 to 3000 RUs of surface density. All the samples were prepared in buffer consisting of 10 mM Sodium Phosphate, pH 7.6, 100 mM KCl, 0.005% Tween-20 and 2% DMSO. The same buffer was used as the running buffer during the experiments. Compound samples were injected at a flow rate of 30 μL/min for 90 seconds of association time followed by at least 240 seconds of dissociation period. The compounds were tested in a concentration series consisting of at least 6 samples (usually 10) made with 5-fold, 3-fold, or 2-fold dilution. […] Multiple blank injections were run before and after each compound series to allow double reference subtraction during data processing and analysis. […] A DMSO curve was run during each experiment to properly correct for excluded volume.

[2] = biological target: Recombinant wild-type TTR (Homo sapiens, UniProt P02766); experiment: KD determination by ITC (Isothermal Titration Calorimetry); settings: 25° C., sequential binding model with 2 sites
Description: KD Determination by ITC—Isothermal Titration Calorimetry
Recombinant wild-type TTR was diluted to 6.9 μM in 100 mM potassium chloride, 10 mM sodium phosphate pH 7.6, 2.5% DMSO, then degassed and transferred to the sample cell of a VP-ITC instrument (MicroCal). Compounds were diluted to 120 μM in an identical buffer, degassed, and injected 7 μL at a time into the protein solution at 25° C. with a reference power of 10 μCal/sec and 300 second spacing between injections.
Data were analyzed using VP-ITC analysis software in Origin. The data were corrected for heat of dilution then fit to a sequential binding model with 2 sites and K1, ΔH1, K2, and ΔH2 as independent parameters. If necessary, the protein concentration was adjusted by fitting the data to a two-independent-sites model and using the calculated N values to estimate the actual protein concentration that yields two total sites.

[3] = SPA, 50 nM [3H] tafamidis, 100 ng human TTR
[4] = first site, read-out: Geometric Mean KD1 (μM) [ITC]
[5] = second site, read-out: Geometric Mean KD2 (μM) [ITC]

## Cc1n[nH]c(C)c1-c1cccc2scnc12 [Example 1, 4-(3,5-dimethyl-1H-pyrazol-4-yl)-1,3-benzothiazole]
[1]; [3]
  EC50: 31 nM
Bap-tagged TTR protein
  Kd: 0.039 µM
[2]; [4]
  Kd: 0.025 µM
[2]; [5]
  Kd: 0.458 µM

## Cc1n[nH]c(C)c1-c1cccc2ncsc12 [Example 2, 7-(3,5-dimethyl-1H-pyrazol-4-yl)-1,3-benzothiazole]
[2]; [4]
  Kd: 0.005 µM
[2]; [5]
  Kd: 0.431 µM

## Cc1n[nH]c(C)c1-c1ccc(C)c2scnc12 [Example 3, 4-(3,5-dimethyl-1H-pyrazol-4-yl)-7-methyl-1,3-benzothiazole]
[1]; [3]
  EC50: 20 nM
Bap-tagged TTR protein
  Kd: 0.02 µM

## Cc1n[nH]c(C)c1-c1ccc(C(F)(F)F)c2scnc12 [Example 4, 4-(3,5-dimethyl-1H-pyrazol-4-yl)-7-(trifluoromethyl)-1,3-benzothiazole]
[1]; [3]
  EC50: 40 nM
Bap-tagged TTR protein
  Kd: 0.049 µM

## Cc1n[nH]c(C)c1-c1ccc(C#N)c2scnc12 [Example 5, 4-(3,5-dimethyl-1H-pyrazol-4-yl)-1,3-benzothiazole-7-carbonitrile]
[1]; [3]
  EC50: 52 nM
Bap-tagged TTR protein
  Kd: 0.052 µM

## Cc1nc2c(-c3c(C)n[nH]c3C)cccc2s1 [Example 6, 4-(3,5-dimethyl-1H-pyrazol-4-yl)-2-methyl-1,3-benzothiazole]
[1]; [3]
  EC50: 1780 nM
Bap-tagged TTR protein
  Kd: 0.574 µM

## Cc1[nH]nc(C#N)c1-c1cccc2scnc12 [Example 7, 4-(1,3-benzothiazol-4-yl)-5-methyl-1H-pyrazole-3-carbonitrile]
[1]; [3]
  EC50: 66.1 nM
Bap-tagged TTR protein
  Kd: 0.074 µM

## Cc1[nH]nc(C#N)c1-c1ccc(C)c2scnc12 [Example 8, 5-methyl-4-(7-methyl-1,3-benzothiazol-4-yl)-1H-pyrazole-3-carbonitrile]
[1]
  EC50: 19.6 nM
Bap-tagged TTR protein
  Kd: 0.027 µM

## Cc1[nH]nc(C#N)c1-c1ccc(C(F)(F)F)c2scnc12 [Example 9, 5-methyl-4-[7-(trifluoromethyl)-1,3-benzothiazol-4-yl]-1H-pyrazole-3-carbonitrile]
[1]
  EC50: 35.5 nM
Bap-tagged TTR protein
  Kd: 0.62 µM

## Cc1n[nH]c(C)c1-c1nccc2scnc12 [Example 10, 4-(3,5-dimethyl-1H-pyrazol-4-yl)[1,3]thiazolo[4,5-c]pyridine]
[1]; [3]
  EC50: 894 nM
Bap-tagged TTR protein
  Kd: 0.297 µM

## COc1ccc(-c2c(C)n[nH]c2C)c2ncsc12 [Example 11, 4-(3,5-dimethyl-1H-pyrazol-4-yl)-7-methoxy-1,3-benzothiazole]
[1]; [3]
  EC50: 36.3 nM

## Cc1n[nH]c(C)c1-c1ccc(F)c2scnc12 [Example 12, 4-(3,5-dimethyl-1H-pyrazol-4-yl)-7-fluoro-1,3-benzothiazole]
[1]; [3]
  EC50: 37.2 nM

## Cc1cc(-c2c(C)n[nH]c2C)c2ncsc2c1 [Example 13, 4-(3,5-dimethyl-1H-pyrazol-4-yl)-6-methyl-1,3-benzothiazole]
[1]
  EC50: 21.4 nM
Bap-tagged TTR protein
  Kd: 0.058 µM

## COc1cc(-c2c(C)n[nH]c2C)c2ncsc2c1 [Example 14, 4-(3,5-dimethyl-1H-pyrazol-4-yl)-6-methoxy-1,3-benzothiazole]
[1]
  EC50: 24.5 nM
Bap-tagged TTR protein
  Kd: 0.031 µM

## Cc1n[nH]c(C)c1-c1cc(F)cc2scnc12 [Example 15, 4-(3,5-dimethyl-1H-pyrazol-4-yl)-6-fluoro-1,3-benzothiazole]
[1]
  EC50: 20.5 nM
Bap-tagged TTR protein
  Kd: 0.027 µM

## Cc1n[nH]c(C)c1-c1cc(C#N)cc2scnc12 [Example 16, 4-(3,5-dimethyl-1H-pyrazol-4-yl)-1,3-benzothiazole-6-carbonitrile]
[1]; [3]
  EC50: 159 nM

## Cc1n[nH]c(C)c1-c1c(F)ccc2scnc12 [Example 17, 4-(3,5-dimethyl-1H-pyrazol-4-yl)-5-fluoro-1,3-benzothiazole]
[1]; [3]
  EC50: 28.7 nM

## Cc1[nH]nc(C(F)(F)F)c1-c1cccc2scnc12 [Example 18, 4-[5-methyl-3-(trifluoromethyl)-1H-pyrazol-4-yl]-1,3-benzothiazole]
[1]; [3]
  EC50: 133 nM

## Cc1n[nH]c(C)c1-c1ccnc2scnc12 [Example 19, 7-(3,5-dimethyl-1H-pyrazol-4-yl)[1,3]thiazolo[5,4-b]pyridine]
[1]; [3]
  EC50: 165 nM

## O=C(O)c1ccc2nc(-c3cc(Cl)cc(Cl)c3)oc2c1 [tafamidis, 2-(3,5-dichlorophenyI)-1,3-benzoxazole-6-carboxylic acid, reference compound]
Bap-tagged TTR protein
  reversibility of binding to TTR: reversible
Bap-tagged TTR protein; tafamidis binding to TTR, n=24
  t1/2: 40.8 s
